Laboratory results taken from patent US20120010075A1 (priority 2009, published 2012).
Read-outs that look alike come from different tables or passages of the source.

What was measured:
Phytophthora infestans [1] = type: in vivo, Phytophthora infestans on tomato (Outdoor Girl); settings: no hydrazone
Phytophthora capsici = assay: In vitro fungitoxicity of hydrazones with and without copper towards Phytophthora capsici (Example 28, Table 3); type: cell-based; settings: 48 h; for % Inhn Plus copper Observed: copper-plus AS medium (CuCl2, 50 μM); for inhibition of growth at 0.039 µg/mL / inhibition of growth at 0.05 µg/mL: Phytophthora capsici, copper-minus AS medium, read-out: % Inhn Minus copper Observed
[2] = system: Leptosphaeria nodorum (LEPTNO); assay: In vitro fungitoxicity of hydrazones with and without copper towards Leptosphaeria nodorum (Example 26); type: cell-based; settings: compound 0.05 μg/mL, 72 h at 25° C.; for inhibition of growth at 0.05 µg/mL: Parastagonospora nodorum, 72 h, copper-minus medium, read-out: LEPTNO % Inhn. Minus Copper Observed; for LEPTNO % Inhn. Plus Copper Observed: copper-plus medium (CuCl2.2H2O)
Phytophthora infestans [3] = type: in vivo, Phytophthora infestans on tomato; settings: hydrazone 50 ppm + 50 μM CuCl2.2H2O, applied 24 h before inoculation, assessed 7 days after inoculation, tomato
Ustilago maydis = assay: In vitro fungitoxicity of hydrazones with and without copper towards Ustilago maydis (Example 29, Table 4); type: cell-based; settings: 1 μg/mL, 48 h; for % Inhn. Plus copper Observed: copper-plus medium (CuCl2, 10 μM); for inhibition of growth at 1 µg/mL: Mycosarcoma maydis, copper-minus medium, read-out: % Inhn. Minus copper Observed
[4] = system: Septoria tritici isolate USA-184; assay: In vitro fungitoxicity of hydrazones with and without copper towards Septoria tritici (Example 30, Table 5); type: cell-based; settings: Zymoseptoria tritici, 0.05 μg/mL
[5] = Colby formula, CuCl2, read-out: % Inhibition Plus copper Predicted
[6] = copper-minus medium, 90 h, read-out: % Inhibition Minus copper Observed
[7] = copper-plus medium CuCl2, 90 h, read-out: % Inhibition Plus copper Observed

## O.O.O.O.O.O=S(=O)([O-])[O-].[Cu+2] [CuSO4, CuSO4.5H2O, reference compound]
Phytophthora infestans [1]; CuSO4 10 μM alone
  % Control of Tomato Late Blight: 1.7%
Phytophthora infestans [1]; CuSO4 50 μM alone
  % Control of Tomato Late Blight: 4.8%
Phytophthora infestans [1]; CuSO4 200 μM alone
  % Control of Tomato Late Blight: 49.7%
Phytophthora infestans [1]; CuSO4 400 μM alone
  % Control of Tomato Late Blight: 76.0%
Phytophthora infestans [1]; CuSO4 800 μM alone
  % Control of Tomato Late Blight: 82.9%

## O=C(N/N=C/c1cc(Cl)cc(Cl)c1O)c1ccccc1C(F)(F)F [Example 56]
Phytophthora capsici; 0.039 μg/mL
  % Inhn Plus copper Observed: 94.1%
  inhibition of growth at 0.039 µg/mL: 57.5%
[2]
  inhibition of growth at 0.05 µg/mL: 2.1%
  LEPTNO % Inhn. Plus Copper Observed: 96.3%
Phytophthora infestans [3]
  TLB % Control: 81.3%
other
  melting point: 106 to 111 °C

## COc1cccc(C(=O)N/N=C/c2cc(Cl)cc(Cl)c2O)c1C [Example 99]
Phytophthora capsici; 0.039 μg/mL
  % Inhn Plus copper Observed: 94.0%
  inhibition of growth at 0.039 µg/mL: 23.6%
[2]
  inhibition of growth at 0.05 µg/mL: 8.9%
  LEPTNO % Inhn. Plus Copper Observed: 94.5%
Phytophthora infestans [3]
  TLB % Control: 50.3%
other
  melting point: 192 to 194 °C

## Cc1cc(C)cc(C(=O)N/N=C/c2cc(Cl)cc(Cl)c2O)c1 [Example 102]
Phytophthora capsici; 0.039 μg/mL
  % Inhn Plus copper Observed: 93.6%
  inhibition of growth at 0.039 µg/mL: 15.7%
[2]
  inhibition of growth at 0.05 µg/mL: 0%
  LEPTNO % Inhn. Plus Copper Observed: 93.4%
Phytophthora infestans [3]
  TLB % Control: 74.0%
other
  melting point: 207 to 209 °C

## O=C(N/N=C/c1cc(Br)cc(Br)c1O)c1ccccc1 [Example 121]
Phytophthora capsici; 0.050 μg/mL
  % Inhn Plus copper Observed: 90.4%
  inhibition of growth at 0.05 µg/mL: 0%
[2]
  inhibition of growth at 0.05 µg/mL: 0%
  LEPTNO % Inhn. Plus Copper Observed: 98.3%
Ustilago maydis
  % Inhn. Plus copper Observed: 96.9%
  inhibition of growth at 1 µg/mL: 0%
Phytophthora infestans [3]
  TLB % Control: 88.1%
[4]; [5]
  inhibition at 0.05 µg/mL: 9.7%
[4]; [6]
  inhibition at 0.05 µg/mL: 9.7%
[4]; [7]
  inhibition at 0.05 µg/mL: 96.5%

## C/C(=N\NC(=O)Cc1ccc(C(F)(F)F)cc1)c1cc(Cl)cc(Cl)c1O [Example 129]
Phytophthora capsici; 0.039 μg/mL
  % Inhn Plus copper Observed: 96.3%
  inhibition of growth at 0.039 µg/mL: 10.6%
[2]
  inhibition of growth at 0.05 µg/mL: 5.5%
  LEPTNO % Inhn. Plus Copper Observed: 97.8%
Phytophthora infestans [3]
  TLB % Control: 49.0%
other
  melting point: 207 to 212 °C

## C/C(=N\NC(=O)Cc1ccccc1)c1cc(Cl)cc(Cl)c1O [Example 140]
Phytophthora capsici; 0.050 μg/mL
  % Inhn Plus copper Observed: 91.4%
  inhibition of growth at 0.05 µg/mL: 0%
[2]
  inhibition of growth at 0.05 µg/mL: 6.7%
  LEPTNO % Inhn. Plus Copper Observed: 96.7%
Ustilago maydis
  % Inhn. Plus copper Observed: 95.7%
  inhibition of growth at 1 µg/mL: 0%
Phytophthora infestans [3]
  TLB % Control: 81.0%
[4]; [5]
  inhibition at 0.05 µg/mL: 0%
[4]; [6]
  inhibition at 0.05 µg/mL: 0%
[4]; [7]
  inhibition at 0.05 µg/mL: 96.6%
other
  melting point: 199 to 204 °C

## Cc1ccccc1C(=O)N/N=C/c1cc(Cl)cc(Br)c1O [Example 162]
Phytophthora capsici; 0.050 μg/mL
  % Inhn Plus copper Observed: 91.6%
  inhibition of growth at 0.05 µg/mL: 5.2%
[2]
  inhibition of growth at 0.05 µg/mL: 0%
  LEPTNO % Inhn. Plus Copper Observed: 96.9%
Ustilago maydis
  % Inhn. Plus copper Observed: 96.4%
  inhibition of growth at 1 µg/mL: 8.8%
Phytophthora infestans [3]
  TLB % Control: 94.0%
[4]; [5]
  inhibition at 0.05 µg/mL: 36.3%
[4]; [6]
  inhibition at 0.05 µg/mL: 36.3%
[4]; [7]
  inhibition at 0.05 µg/mL: 97.1%

## O=C(N/N=C/c1cc(Cl)ccc1O)c1ccccc1O [Example 177]
Phytophthora capsici; 0.050 μg/mL
  % Inhn Plus copper Observed: 92.4%
  inhibition of growth at 0.05 µg/mL: 0%
[2]
  inhibition of growth at 0.05 µg/mL: 12.5%
  LEPTNO % Inhn. Plus Copper Observed: 95.2%
Ustilago maydis
  % Inhn. Plus copper Observed: 33.3%
  inhibition of growth at 1 µg/mL: 0%
Phytophthora infestans [3]
  TLB % Control: 91.0%
[4]; [5]
  inhibition at 0.05 µg/mL: 0.2%
[4]; [6]
  inhibition at 0.05 µg/mL: 0.2%
[4]; [7]
  inhibition at 0.05 µg/mL: 95.2%

## COc1cc(Br)cc(/C=N/NC(=O)c2cccc(Br)c2)c1O [Example 204]
Phytophthora capsici; 0.050 μg/mL
  % Inhn Plus copper Observed: 81.9%
  inhibition of growth at 0.05 µg/mL: 6%
[2]
  inhibition of growth at 0.05 µg/mL: 7.3%
  LEPTNO % Inhn. Plus Copper Observed: 95.5%
Ustilago maydis
  % Inhn. Plus copper Observed: 77.0%
  inhibition of growth at 1 µg/mL: 0%
Phytophthora infestans [3]
  TLB % Control: 77.2%
[4]; [5]
  inhibition at 0.05 µg/mL: 0%
[4]; [6]
  inhibition at 0.05 µg/mL: 0%
[4]; [7]
  inhibition at 0.05 µg/mL: 84.4%

## O=C(N/N=C/c1ccccc1O)c1cc(Cl)ccc1Br [Example 218]
Phytophthora capsici; 0.050 μg/mL
  % Inhn Plus copper Observed: 93.3%
  inhibition of growth at 0.05 µg/mL: 10.7%
[2]
  inhibition of growth at 0.05 µg/mL: 0%
  LEPTNO % Inhn. Plus Copper Observed: 92.5%
Phytophthora infestans [3]
  TLB % Control: 70.9%
other
  melting point: 222 to 225 °C

## O=C(N/N=C/c1cc(Cl)cc(Cl)c1O)c1cc(Cl)ccc1Br [Example 219]
Phytophthora capsici; 0.050 μg/mL
  % Inhn Plus copper Observed: 90.6%
  inhibition of growth at 0.05 µg/mL: 15.3%
[2]
  inhibition of growth at 0.05 µg/mL: 34.5%
  LEPTNO % Inhn. Plus Copper Observed: 97.9%
Phytophthora infestans [3]
  TLB % Control: 68.4%
other
  melting point: 228 to 231 °C
